In patent publication US9073906B2, “Sulfamide derivative having an adamantyl group and its pharmaceutically acceptable salt” (KOREA RESEARCH INSTITUTE OF CHEMICAL TECHNOLOGY, priority 2011, dated 2015):

What was measured:
[1] = target: human 11β-HSD1 (Homo sapiens (Human), UniProt P28845); experiment: HTRF cortisol assay in 11β-HSD1 overexpressing CHO cells; type: cell-based; conditions: human 11β-HSD1 overexpressing CHO cells, 160 nM cortisone, 3 hr at 37° C., read-out: IC50(nM) to 11β-HSD-1
Protocol: The full-length cDNA molecule coding for human or mouse 11β-HSD1 was inserted into pcDNA (Promega) as mammalian expression vectors and transformed into CHO cells for 5 hr using Lipofectamine plus (Invitrogen) in accordance with manufacturer's manual, followed by stabilization for 48 hr. The CHO cells were incubated with 0.8 μg/ml puromycin (Sigma) once every three days for two weeks to obtain human or mouse 11β-HSD1 overexpressing cells. The cells were grown and frozen, and thawed for enzyme inhibition tests.
The in vitro inhibitory activities of the novel compounds to human 11β-HSD1 were evaluated in accordance with homogenous time-resolved fluorescence (HTRF).
The human or mouse 11β-HSD1 overexpressing cells were subcultured at the number of 2.5×10^4 cells in 96-well plate and stabilized for 24 hr. […] Then, samples of the medium (10 μl) were transferred to 384-well plate and the amounts of cortisol produced were measured using a cortisol kit (Cisbio international) in accordance with manufacturer's instruction. […] Delta F value=(Ratio of compounds−Ratio of negative)/Ratio of negative×100 2. Normalized value=Delta F value of compounds−Delta F value of control 3. % inhibition=Normalized value of compounds/Normalized value of background×100 4.

[2] = target: human 11β-HSD-2 (Homo sapiens (Human), UniProt P80365); experiment: HTRF analysis of inhibition of 11β-HSD-2; type: cell-based; conditions: human 11β-HSD-2, HTRF
human 11β-HSD-2, sequence (P80365 whole entry): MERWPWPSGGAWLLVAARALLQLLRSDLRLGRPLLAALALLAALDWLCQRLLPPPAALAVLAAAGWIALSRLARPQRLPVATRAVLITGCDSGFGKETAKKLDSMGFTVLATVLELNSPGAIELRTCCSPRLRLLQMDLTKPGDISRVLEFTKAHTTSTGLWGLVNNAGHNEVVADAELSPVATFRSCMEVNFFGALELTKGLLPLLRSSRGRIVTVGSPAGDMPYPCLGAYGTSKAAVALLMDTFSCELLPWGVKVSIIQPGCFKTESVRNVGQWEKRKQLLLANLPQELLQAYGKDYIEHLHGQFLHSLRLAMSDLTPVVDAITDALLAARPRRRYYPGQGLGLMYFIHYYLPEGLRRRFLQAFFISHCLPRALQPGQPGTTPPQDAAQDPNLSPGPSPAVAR

human 11β-HSD1, sequence (P28845 whole entry): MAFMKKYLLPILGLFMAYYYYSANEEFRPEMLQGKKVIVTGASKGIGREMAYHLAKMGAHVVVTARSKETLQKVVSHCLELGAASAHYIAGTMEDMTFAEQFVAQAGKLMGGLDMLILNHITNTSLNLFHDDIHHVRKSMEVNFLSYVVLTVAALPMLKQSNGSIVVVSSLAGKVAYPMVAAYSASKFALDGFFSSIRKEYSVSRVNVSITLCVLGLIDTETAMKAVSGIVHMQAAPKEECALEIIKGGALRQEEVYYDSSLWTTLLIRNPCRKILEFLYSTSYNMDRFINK

Row | Compound | IC50 [1] | IC50 [2]
1 | O=C(CN1CCCN(c2ccccc2)S1(=O)=O)NC1C2CC3CC(C2)CC1C3 (centres unmarked) [Compound 2, N-(adamantan-2-yl)-(1,1-dioxido-6-phenyl-1,2,6-thiadiazinan-2-yl)acetamide] | 12 nM | > 10000 nM
2 | CC(C)(C)OC(=O)N1CCCN(CC(=O)NC2C3CC4CC(C3)CC2C4)S1(=O)=O (centres unmarked) [Compound 3, tert-butyl 6-(2-(adamantan-2-ylamino)-2-oxoethyl)-1,2,6-thiadiazinan-2-carboxylate 1,1-dioxide] | 363 nM | > 10000 nM
3 | O=C(CN1CCCN(Cc2ccccc2)S1(=O)=O)NC1C2CC3CC(C2)CC1C3 (centres unmarked) [Compound 5, N-(adamantan-2-yl)-2-(6-benzyl-1,1-dioxido-1,2,6-thiadiazinan-2-yl)acetamide] | 360 nM | > 10000 nM
4 | O=C(CN1CCCN(Cc2ccccc2F)S1(=O)=O)NC1C2CC3CC(C2)CC1C3 (centres unmarked) [Compound 14, N-(adamantan-2-yl)-2-(6-(2-fluorobenzyl)-1,1-dioxido-1,2,6-thiadiazinan-2-yl)acetamide] | 1660 nM | > 10000 nM
5 | Cc1ccc(N2CCCN(CC(=O)NC3C4CC5CC(C4)CC3C5)S2(=O)=O)cc1 (centres unmarked) [Compound 24, N-(adamantan-2-yl)-2-(1,1-dioxido-6-(p-tolyl)-1,2,6-thiadiazinan-2-yl)acetamide] | 3370 nM | > 10000 nM
6 | NC(=O)C12CC3CC(C1)C(NC(=O)CN1CCCN(c4ccc(F)cc4)S1(=O)=O)C(C3)C2 (centres unmarked) [Compound 44, 4-(2-(6-(4-fluorophenyl)-1,1-dioxido-1,2,6-thiadiazinan-2-yl)acetamido)adamantan-1-carboxamide] | 79 nM | > 10000 nM
7 | NC(=O)C12CC3CC(C1)C(NC(=O)CN1CCCN(c4ccccc4F)S1(=O)=O)C(C3)C2 (centres unmarked) [Compound 59, 4-(2-(6-(2-fluorophenyl)-1,1-dioxido-1,2,6-thiadiazinan-2-yl)-acetamido)adamantan-1-carboxamide] | 14 nM | > 10000 nM
8 | NC(=O)C12CC3CC(C1)C(NC(=O)CN1CCCN(c4ccccc4)S1(=O)=O)C(C3)C2 (centres unmarked) [Compound 60, 4-(2-(1,1-dioxido-6-phenyl-1,2,6-thiadiazinan-2-yl)acetamido)adamantan-1-carboxamide] | 17 nM | > 10000 nM
9 | NC(=O)C12CC3CC(C1)C(NC(=O)CN1CCCN(c4cccc(F)c4)S1(=O)=O)C(C3)C2 (centres unmarked) [Compound 69, 4-(2-(6-(3-fluorophenyl)-1,1-dioxido-1,2,6-thiadiazinan-2-yl)acetamido)adamantan-1-carboxamide] | 3 nM | > 10000 nM
10 | NC(=O)C12CC3CC(C1)C(NC(=O)CN1CCCN(c4c(Cl)cc(Cl)cc4Cl)S1(=O)=O)C(C3)C2 (centres unmarked) [Compound 88, 4-(2-(1,1-dioxido-6-(2,4,6-trichlorophenyl)-1,2,6-thiadiazinan-2-yl)acetamido)adamantan-1-carboxamide] | 0.2 nM | > 10000 nM
11 | NC(=O)C12CC3CC(C1)C(NC(=O)CN1CCCN(c4c(F)cc(F)cc4F)S1(=O)=O)C(C3)C2 (centres unmarked) [Compound 89, 4-(2-(1,1-dioxido-6-(2,4,6-trifluorophenyl)-1,2,6-thiadiazinan-2-yl)acetamido)adamantan-1-carboxamide] | 20 nM | > 10000 nM
12 | NC(=O)C12CC3CC(C1)C(NC(=O)CN1CCCCN(c4c(Cl)cc(Cl)cc4Cl)S1(=O)=O)C(C3)C2 (centres unmarked) [Compound 122, 4-(2-(1,1-dioxido-7-(2,4,6-trichlorophenyl)-1,2,7-thiadiazepane-2-yl)acetamido) adamantan-1-carboxamide] | 0.4 nM | > 10000 nM
13 | CN(CC(=O)NC1C2CC3CC1CC(C(N)=O)(C3)C2)S(=O)(=O)N(C)c1c(Cl)cc(Cl)cc1Cl (centres unmarked) [Compound 123, 4-(2-(methyl(N-methyl-N-(2,4,6-trichlorophenyl)sulfa-moyl)amino)acetamido) adamantan-1-carboxamide] | 0.8 nM | > 10000 nM
14 | NC(=O)C12CC3CC(C1)C(NC(=O)CN1CCN(c4c(Cl)cc(Cl)cc4Cl)S1(=O)=O)C(C3)C2 (centres unmarked) [Compound 124, 4-(2-(1,1-dioxido-5-(2,4,6-trichlorophenyl)-1,2,5-thiadiazolidin-2-yl)acetamido) adamantan-1-carboxamide] | 187 nM | > 10000 nM
15 | CC1CCN(c2c(Cl)cc(Cl)cc2Cl)S(=O)(=O)N1CC(=O)NC1C2CC3CC1CC(C(N)=O)(C3)C2 (centres unmarked) [Compound 128, 4-(2-(3-methyl-1,1-dioxido-6-(2,4,6-trichlorophenyl)-1,2,6-thiadiazinan-2-yl)acetamido) adamantan-1-carboxamide] | 0.1 nM | > 10000 nM
16 | CC1CN(CC(=O)NC2C3CC4CC2CC(C(N)=O)(C4)C3)S(=O)(=O)N(c2c(Cl)cc(Cl)cc2Cl)C1 (centres unmarked) [Compound 156, 4-(2-(4-methyl-1,1-dioxido-6-(2,4,6-trichlorophenyl)-1,2,6-thiadiazinan-2-yl)acetamido)adamantan-1-carboxamide] | 1 nM | > 10000 nM
17 | NC(=O)[C@]12CC3CC(C1)[C@@H](NC(=O)CN1CC(F)(F)CN(c4c(Cl)cc(Cl)cc4Cl)S1(=O)=O)C(C3)C2 [Compound 172, 4-(2-(4,4-difluoro-1,1-dioxido-6-(2,4,6-trichlorophenyl)-1,2,6-thiadiazinan-2-yl)acetamido)adamantan-1-carboxamide (E form)] |  | > 10000 nM
18 | C=C1CN(CC(=O)NC2C3CC4CC2CC(C(N)=O)(C4)C3)S(=O)(=O)N(c2c(Cl)cc(Cl)cc2Cl)C1 (centres unmarked) [Compound 175, 4-(2-(4-methylene-1,1-dioxido-6-(2,4,6-trichlorophenyl)-1,2,6-thiadiazinan-2-yl)acetamido)adamantan-1-carboxamide] | 14 nM | > 10000 nM
19 | NC(=O)C12CC3CC(C1)C(NC(=O)CN1CC4(CC4)CN(c4c(Cl)cc(Cl)cc4Cl)S1(=O)=O)C(C3)C2 (centres unmarked) [Compound 176, 4-(2-(6,6-dioxido-7-(2,4,6-trichlorophenyl)-6-thia-5,7-diazaspiro[2,5]octane-5-yl)acetamido)adamantan-1-carboxamide] | 5 nM | > 10000 nM
20 | CC1(C)CN(CC(=O)NC2C3CC4CC2CC(C(N)=O)(C4)C3)S(=O)(=O)N(c2c(Cl)cc(Cl)cc2Cl)C1 (centres unmarked) [Compound 177, 4-(2-(4,4-dimethyl-1,1-dioxido-6-(2,4,6-trichlorophenyl)-1,2,6-thiadiazinan-2-yl)acetamido)adamantan-1-carboxamide] | 5 nM | > 10000 nM
21 | CC1CN(CC(=O)NC2C3CC4CC2CC(C(N)=O)(C4)C3)S(=O)(=O)N(c2c(Cl)cc(C(F)(F)F)cc2Cl)C1 (centres unmarked) [Compound 183, (E) 4-(2-(6-(2,6-dichloro-4-(trifluoromethyl)phenyl)-4-methyl-1,1-dioxido-1,2,6-thiadiazinan-2-yl)acetamido)adamantan-1-carboxamide] | 4.8 nM | > 10000 nM
22 | C[C@H]1CN(CC(=O)NC2C3CC4CC2CC(C(N)=O)(C4)C3)S(=O)(=O)N(c2c(Cl)cc(C(F)(F)F)cc2Cl)C1 (stereo partly drawn) [Compound 195, 4-(2-((S)-6-(2,6-dichloro-4-(trifluoromethyl)phen-yl)-4-methyl-1,1-dioxido-1,2,6-thiadiazinan-2-yl)acetamido)adamantan-1-carboxamide] |  | > 10000 nM
23 | C[C@@H]1CN(CC(=O)NC2C3CC4CC2CC(C(N)=O)(C4)C3)S(=O)(=O)N(c2c(Cl)cc(C(F)(F)F)cc2Cl)C1 (stereo partly drawn) [Compound 196, 4-(2-((R)-6-(2,6-dichloro-4-(trifluoromethyl)phen-yl)-4-methyl-1,1-dioxido-1,2,6-thiadiazinan-2-yl)acetamido)adamantan-1-carboxamide] | 1.3 nM | > 10000 nM
